For orientation: IC50 means the concentration needed to halve the response being measured. A higher IC50 goes with weaker potency.

These results are taken from BindingDB's records for doi:10.3109/14756360903017122 (Indian Institute of Chemical Technology, 2010).

This experiment deals with Sucrase-isomaltase, intestinal (Rattus norvegicus, UniProt P23739). Put plainly: In Vitro α-Glucosidase Inhibitory Assay. The conditions noted are these: pH 6.8. How it is done:
Rat intestinal acetone powder in normal saline (100: 1; w/v) was sonicated thoroughly and the supernatant was used as a source of crude intestinal α-glucosidase after centrifugation. In brief, […] of test sample ( 5 mg/mL DMSO solution) was reconstituted in […] of 100 mM phosphate buffer (pH 6.8) in a 96-well microplate and incubated with […] of crude intestinal α-glucosidase for 5 min before […] substrate (5 mM pNPG prepared in same buffer) was added. Release of p-nitrophenol was measured at 405 nm spectrophotometrically (SpectraMax Plus384; Molecular Devices Corp., Sunnyvale, CA, USA) 5 min after incubation withsubstrate. Individual blanks for test samples were prepared to correct background absorbance where substrate was replaced with […] of buffer. The control samplecontained […] of dimethylsulfoxide (DMSO) in place of test sample.

Chain of Sucrase-isomaltase, intestinal (P23739 1-1013 limits assumed): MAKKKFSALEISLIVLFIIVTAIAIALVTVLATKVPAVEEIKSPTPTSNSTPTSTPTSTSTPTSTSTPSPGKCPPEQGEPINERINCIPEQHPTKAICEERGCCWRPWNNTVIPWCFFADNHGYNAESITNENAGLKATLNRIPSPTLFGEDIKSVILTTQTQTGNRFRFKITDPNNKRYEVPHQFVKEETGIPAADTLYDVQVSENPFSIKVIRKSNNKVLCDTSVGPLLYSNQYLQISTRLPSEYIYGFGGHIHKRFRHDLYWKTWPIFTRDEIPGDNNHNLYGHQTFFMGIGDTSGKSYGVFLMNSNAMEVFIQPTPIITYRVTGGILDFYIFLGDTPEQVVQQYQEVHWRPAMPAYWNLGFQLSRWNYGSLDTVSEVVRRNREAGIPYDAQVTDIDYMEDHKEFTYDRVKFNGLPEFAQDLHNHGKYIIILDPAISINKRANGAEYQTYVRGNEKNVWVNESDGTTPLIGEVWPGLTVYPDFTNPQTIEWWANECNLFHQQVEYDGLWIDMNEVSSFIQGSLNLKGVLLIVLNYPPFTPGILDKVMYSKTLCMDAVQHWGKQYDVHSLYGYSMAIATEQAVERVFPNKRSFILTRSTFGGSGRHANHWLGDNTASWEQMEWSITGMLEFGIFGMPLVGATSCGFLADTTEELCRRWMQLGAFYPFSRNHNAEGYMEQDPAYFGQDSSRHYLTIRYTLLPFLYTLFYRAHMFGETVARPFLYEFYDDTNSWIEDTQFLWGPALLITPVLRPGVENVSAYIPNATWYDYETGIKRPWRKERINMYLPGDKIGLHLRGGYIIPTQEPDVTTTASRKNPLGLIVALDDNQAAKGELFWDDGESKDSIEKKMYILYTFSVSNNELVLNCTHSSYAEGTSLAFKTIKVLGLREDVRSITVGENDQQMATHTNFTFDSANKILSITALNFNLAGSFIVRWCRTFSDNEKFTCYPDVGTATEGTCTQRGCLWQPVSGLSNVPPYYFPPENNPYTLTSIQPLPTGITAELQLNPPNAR
Chain of Sucrase-isomaltase, intestinal (P23739 1014-1841 limits assumed): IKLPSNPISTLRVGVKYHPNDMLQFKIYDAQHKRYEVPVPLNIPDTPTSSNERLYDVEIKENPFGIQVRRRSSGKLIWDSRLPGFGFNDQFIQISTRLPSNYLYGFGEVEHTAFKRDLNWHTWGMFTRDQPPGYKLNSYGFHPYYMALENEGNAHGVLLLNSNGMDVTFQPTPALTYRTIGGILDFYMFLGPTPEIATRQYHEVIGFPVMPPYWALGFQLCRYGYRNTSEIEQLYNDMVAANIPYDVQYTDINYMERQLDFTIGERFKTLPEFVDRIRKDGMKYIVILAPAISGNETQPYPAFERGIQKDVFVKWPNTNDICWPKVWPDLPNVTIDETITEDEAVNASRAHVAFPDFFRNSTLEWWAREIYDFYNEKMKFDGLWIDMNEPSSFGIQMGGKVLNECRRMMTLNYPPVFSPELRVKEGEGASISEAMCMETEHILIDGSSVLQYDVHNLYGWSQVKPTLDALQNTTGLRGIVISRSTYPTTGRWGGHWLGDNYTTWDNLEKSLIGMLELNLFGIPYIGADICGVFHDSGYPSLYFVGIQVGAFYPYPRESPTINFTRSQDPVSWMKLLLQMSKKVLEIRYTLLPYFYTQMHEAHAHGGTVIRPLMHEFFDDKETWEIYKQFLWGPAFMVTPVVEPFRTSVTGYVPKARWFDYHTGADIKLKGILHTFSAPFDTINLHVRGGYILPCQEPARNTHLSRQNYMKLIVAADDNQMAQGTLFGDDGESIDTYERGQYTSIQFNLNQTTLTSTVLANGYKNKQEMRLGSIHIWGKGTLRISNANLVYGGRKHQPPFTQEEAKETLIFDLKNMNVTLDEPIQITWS

In the case of `O=[N+]([O-])c1ccc2[nH]c(-c3ccncc3)nc2c1` [6-Nitro-2-(4-pyridyl)-1H-benzo[d]imidazole (3e)], the IC50 is 99.4 µM.
